The assay relates to CD2F1 mice, L1210 leukemia ip, survival T/C. The experiment in a line: NCI In Vivo Anticancer Drug Screen. Data for tumor model L1210 Leukemia (intraperitoneal) in CD2F1 (CDF1) mice. The note with it: higher = longer survival. The essentials: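 Compound-dosed mice with transplantable tumor versus matched vehicle controls; endpoint ratio T/C reported.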
Setting [1] is: endpoint: mean survival time, dose: 25.0 mg/kg/injection, schedule: Q04DX003 (ip), vehicle: saline.
[2] abbreviates: endpoint: mean survival time, dose: 50.0 mg/kg/injection, schedule: Q04DX003 (ip), vehicle: saline.
[3] abbreviates: endpoint: mean survival time, dose: 100.0 mg/kg/injection, schedule: Q04DX003 (ip), vehicle: saline.
The mark [4] stands for this setting: endpoint: mean survival time, dose: 100.0 mg/kg/injection, schedule: Q04DX003 (ip), vehicle: saline with Tween-80.
[5] abbreviates: endpoint: mean survival time, dose: 200.0 mg/kg/injection, schedule: Q04DX003 (ip), vehicle: saline with Tween-80.
Where [6] appears, read: endpoint: mean survival time, dose: 400.0 mg/kg/injection, schedule: Q04DX003 (ip), vehicle: saline with Tween-80.
Where [7] appears, read: endpoint: mean survival time, dose: 75.0 mg/kg/injection, schedule: Q04DX003 (ip), vehicle: saline.
Setting [8] is: endpoint: mean survival time, dose: 100.0 mg/kg/injection, schedule: Q01DX009 (ip), vehicle: saline with Tween-80.
Setting [9] is: endpoint: mean survival time, dose: 200.0 mg/kg/injection, schedule: Q01DX009 (ip), vehicle: saline with Tween-80.

Structures are written as SMILES. Several values for one entry are separate records, joined by “and”; a condition that tells them apart may be missing. Equal entries are not always repeated. Toxic doses and inconclusive results are not listed.

For the compound `O=c1[nH]cc(Cc2ccccc2)c(=S)[nH]1`, the T/C was 107 % of control (endpoint: mean survival time, dose: 75.0 mg/kg/injection, schedule: Q01DX001 (ip), vehicle: saline with Tween-80); 102 % of control (endpoint: mean survival time, dose: 150.0 mg/kg/injection, schedule: Q01DX001 (ip), vehicle: saline with Tween-80); 91 % of control (endpoint: mean survival time, dose: 300.0 mg/kg/injection, schedule: Q01DX001 (ip), vehicle: saline with Tween-80).
Consider `CN(C)/C=N/N1CCCCCC1`, for which the T/C is 103 % of control under setting [1], 97 % of control under setting [2] and 96 % of control under setting [3].
As for `COC(=O)CNC(=O)C(F)(F)F`, the T/C runs as follows: (endpoint: mean survival time, dose: 100.0 mg/kg/injection, schedule: Q01DX001 (ip), vehicle: saline) 104 % of control; under setting [4], 103 % of control; (endpoint: mean survival time, dose: 200.0 mg/kg/injection, schedule: Q01DX001 (ip), vehicle: saline) 112 % of control; under setting [5], 101 % of control; (endpoint: mean survival time, dose: 400.0 mg/kg/injection, schedule: Q01DX001 (ip), vehicle: saline) 104 % of control; under setting [6], 103 % of control.
`O=C(Nc1ccc([N+](=O)[O-])cc1)OC1CCS(=O)(=O)C1` (stereo unspecified): the T/C under setting [7] is 102 % of control; the T/C (endpoint: mean survival time, dose: 150.0 mg/kg/injection, schedule: Q04DX003 (ip), vehicle: saline) was 98 % of control; the T/C (endpoint: mean survival time, dose: 300.0 mg/kg/injection, schedule: Q04DX003 (ip), vehicle: saline) is 101 % of control.
With `C/C=C(\C)c1cc(=O)c2c(C)cc3c(c2o1)C(=O)c1c(O)c(C2CC(C)(N(C)C)C(O)C(C)O2)cc(C2CC(N(C)C)C(O)C(C)O2)c1C3=O` (stereo unspecified), the T/C is, setting by setting: (endpoint: mean survival time, dose: 0.38 mg/kg/injection, schedule: Q01DX009 (ip), vehicle: saline) 102 % of control; (endpoint: mean survival time, dose: 0.62 mg/kg/injection, schedule: Q01DX009 (ip), vehicle: saline) 115 % of control; (endpoint: mean survival time, dose: 0.63 mg/kg/injection, schedule: Q01DX009 (ip), vehicle: saline) 116 % of control; (endpoint: mean survival time, dose: 0.75 mg/kg/injection, schedule: Q01DX009 (ip), vehicle: saline) 109 % of control; (endpoint: mean survival time, dose: 1.25 mg/kg/injection, schedule: Q01DX009 (ip), vehicle: saline) 113 % of control and 105 % of control; (endpoint: mean survival time, dose: 1.5 mg/kg/injection, schedule: Q01DX009 (ip), vehicle: saline) 113 % of control. Also, the T/C (endpoint: mean survival time, dose: 3.0 mg/kg/injection, schedule: Q01DX009 (ip), vehicle: saline) was 107 % of control; the T/C (endpoint: mean survival time, dose: 3.13 mg/kg/injection, schedule: Q01DX009 (ip), vehicle: saline with Tween-80) is 98 % of control; the T/C (endpoint: mean survival time, dose: 31.25 micrograms/kg/injection, schedule: Q01DX009 (ip), vehicle: saline) is 103 % of control; the T/C (endpoint: mean survival time, dose: 62.5 micrograms/kg/injection, schedule: Q01DX009 (ip), vehicle: saline) was 115 % of control; the T/C (endpoint: mean survival time, dose: 125.0 micrograms/kg/injection, schedule: Q01DX009 (ip), vehicle: saline) is 111 % of control; the T/C (endpoint: mean survival time, dose: 156.25 micrograms/kg/injection, schedule: Q01DX009 (ip), vehicle: saline) was 119 % of control. The T/C (endpoint: mean survival time, dose: 250.0 micrograms/kg/injection, schedule: Q01DX009 (ip), vehicle: saline) is 115 % of control; the T/C (endpoint: mean survival time, dose: 500.0 micrograms/kg/injection, schedule: Q01DX009 (ip), vehicle: saline) was 115 % of control; the T/C (endpoint: mean survival time, dose: 625.0 micrograms/kg/injection, schedule: Q01DX009 (ip), vehicle: saline) is 104 % of control; the T/C (endpoint: mean survival time, dose: 1000.0 micrograms/kg/injection, schedule: Q01DX009 (ip), vehicle: saline) was 105 % of control; the T/C (endpoint: mean survival time, dose: 1250.0 micrograms/kg/injection, schedule: Q01DX009 (ip), vehicle: saline) is 120 % of control; the T/C (endpoint: mean survival time, dose: 2500.0 micrograms/kg/injection, schedule: Q01DX009 (ip), vehicle: saline) is 95 % of control. For the same compound, the T/C runs as follows: (endpoint: median survival time, dose: 3.13 mg/kg/injection, schedule: Q01DX001 (ip), vehicle: saline with Tween-80) 111 % of control; (endpoint: median survival time, dose: 6.25 mg/kg/injection, schedule: Q01DX001 (ip), vehicle: saline with Tween-80) 111 % of control; (endpoint: median survival time, dose: 12.5 mg/kg/injection, schedule: Q01DX001 (ip), vehicle: saline with Tween-80) 122 % of control; (endpoint: median survival time, dose: 25.0 mg/kg/injection, schedule: Q01DX001 (ip), vehicle: saline with Tween-80) 111 % of control.
Consider `COc1cc(C(=O)NNC(=O)c2ccc(Cl)cc2)cc(OC)c1OC`, for which the T/C under setting [8] was 94 % of control and the T/C under setting [9] was 86 % of control.
For `COc1cc2cc3c4cc5c(cc4cc[n+]3c(C)c2cc1OC)OCO5` (tested in a mixture with another compound), the T/C is, setting by setting: under setting [1], 122 % of control; under setting [2], 122 % of control; under setting [4], 92 % of control; under setting [3], 118 % of control.
As for `COC(=O)CC1(C(=O)OC)OC(=O)c2ccccc2N1C` (stereo unspecified), the T/C is, setting by setting: under setting [8], 103 % of control; under setting [9], 106 % of control; (endpoint: mean survival time, dose: 400.0 mg/kg/injection, schedule: Q01DX009 (ip), vehicle: saline with Tween-80) 101 % of control.
As to `C[Si](C)(C)c1c(F)c(F)c(F)c(F)c1F`, the T/C under setting [4] was 96 % of control, the T/C under setting [5] is 94 % of control and the T/C under setting [6] is 88 % of control.
`c1ccc2c(c1)Cc1c-2nc2ccccc2c1N1CCOCC1`: the T/C by setting is: (endpoint: mean survival time, dose: 100.0 mg/kg/injection, schedule: Q01DX001 (ip), vehicle: saline with Tween-80) 94 % of control; under setting [8], 97 % of control; (endpoint: mean survival time, dose: 200.0 mg/kg/injection, schedule: Q01DX001 (ip), vehicle: saline with Tween-80) 100 % of control; under setting [9], 106 % of control; (endpoint: mean survival time, dose: 400.0 mg/kg/injection, schedule: Q01DX001 (ip), vehicle: saline with Tween-80) 92 % of control.
For `COc1ccc([N+](=O)[O-])cc1Br`, the T/C under setting [4] was 100 % of control, the T/C under setting [5] is 102 % of control and the T/C under setting [6] is 102 % of control.
For `CCCCCCC(=O)CCCCCCCCCCCCC(=O)OC`, the T/C reads like this: under setting [4], 95 % of control; under setting [5], 97 % of control; under setting [6], 93 % of control.
With `OC1CCC(CC2CCCCC2)CC1` (stereo unspecified), the T/C reads like this: under setting [8], 95 % of control; under setting [9], 92 % of control.
`COc1ccc(N=C(N)N=C(N)N)cc1`: the T/C is, setting by setting: (endpoint: mean survival time, dose: 25.0 mg/kg/injection, schedule: Q01DX009 (ip), vehicle: saline with Tween-80) 102 % of control; (endpoint: mean survival time, dose: 50.0 mg/kg/injection, schedule: Q01DX009 (ip), vehicle: saline with Tween-80) 96 % of control; under setting [8], 106 % of control.
`CN(CCC(=O)N(C)CCC1CCCCC1)CCC1CCCCC1`: the T/C (endpoint: mean survival time, dose: 75.0 mg/kg/injection, schedule: Q01DX001 (ip), vehicle: saline) is 98 % of control.
As to `Nc1nc(SCc2ccccc2)c2[nH]cnc2n1`, the T/C is 118 % of control (endpoint: mean survival time, dose: 15.6 mg/kg/injection, schedule: Q01DX009 (ip), vehicle: saline); 158 % of control and 183 % of control (endpoint: mean survival time, dose: 31.3 mg/kg/injection, schedule: Q01DX009 (ip), vehicle: saline); 151 % of control (endpoint: mean survival time, dose: 37.5 mg/kg/injection, schedule: Q03DX003 (ip), vehicle: saline); 164 % of control (endpoint: mean survival time, dose: 37.5 mg/kg/injection, schedule: Q04DX003 (ip), vehicle: saline); 180 % of control and 181 % of control (endpoint: mean survival time, dose: 62.5 mg/kg/injection, schedule: Q01DX009 (ip), vehicle: saline); 160 % of control under setting [7]. Moreover, the T/C is, setting by setting: (endpoint: mean survival time, dose: 125.0 mg/kg/injection, schedule: Q01DX009 (ip), vehicle: saline) 161 % of control; (endpoint: mean survival time, dose: 150.0 mg/kg/injection, schedule: Q01DX007 (ip), vehicle: saline) 107 % of control; (endpoint: mean survival time, dose: 150.0 mg/kg/injection, schedule: Q01DX009 (ip), vehicle: saline) 100 % of control; (endpoint: mean survival time, dose: 150.0 mg/kg/injection, schedule: Q03DX003 (ip), vehicle: saline) 150 % of control; (endpoint: median survival time, dose: 31.3 mg/kg/injection, schedule: Q01DX009 (ip), vehicle: saline) 150 % of control and 162 % of control; (endpoint: median survival time, dose: 62.5 mg/kg/injection, schedule: Q01DX009 (ip), vehicle: saline) 155 % of control and 156 % of control. Further, the T/C reads like this: (endpoint: median survival time, dose: 125.0 mg/kg/injection, schedule: Q01DX009 (ip), vehicle: saline) 88 % of control and 112 % of control; (endpoint: median survival time, dose: 250.0 mg/kg/injection, schedule: Q01DX009 (ip), vehicle: saline) 87 % of control.
Turning to `N/C(=N\N=C1CCCC1)N[N+](=O)[O-]`, the T/C reads like this: under setting [4], 96 % of control; under setting [5], 102 % of control; under setting [6], 104 % of control.
Turning to `O=C1CCC(=O)N1CCC1=NCCc2ccccc21`, the T/C by setting is: under setting [4], 100 % of control; under setting [5], 96 % of control; under setting [6], 100 % of control.

For the origin of these results see PubChem BioAssay AID256 (DTP/NCI, 2004).
